# Measurements from US20170008888A1 (KYORIN PHARMACEUTICAL CO., LTD., priority 2014, published 2017).
# Marks after values point to notes of the source that are not given here.
# Legend:
# [1] = test system: Imiquimod-induced psoriasis mouse model; assay: Imiquimod (IMQ)-induced acute model of psoriasis in mouse: skin thickness, erythema, scaling; type: in vivo, mouse (Balb/c)
# Experimental: Material and methods for the IMQ study were adapted from van der Fits et al. J Immunol., 2009, 182: 5836-5845. Eight week old male Balb/c mice (Harlan) received a daily topical dose of 62.5 mg 5% IMQ cream (Aldara™, Medicis) equivalent to 3.125 mg IMQ, on the shaved back (approximately 2×3.5 cm patch) and dorsal surface of the right ear for 6 consecutive days. Sham control mice were treated similarly with control cream (Hydrous Emulsified Base, HEB, Cream, Fagron). Treatments were administered by group as indicated in Table 1 below prior to daily application of IMQ (QD and morning dose of BID regimens), n=10 for all groups. […] Body weights and scoring of induced clinical disease were performed after dosing (Days 1-7) but prior to IMQ application (Days 1-6) on Days 1 (baseline), 3, 4, 6, 8. Mice were sacrificed on Day 8 and treated back skin tissue collected and divided for fixation for histopathology (a 12 mm punch in mid-back) the remainder flash frozen; right (IMQ) and left (control) ears, spleen (after wet weight) and lung were also individually collected and flash frozen, and stored at −70° C. for subsequent biochemical analyses. Statistics were performed using one-way ANOVA with Dunnett's post-hoc test comparing treated groups to the vehicle group, using InStat software (GraphPad, La Jolla, Calif.).
# The severity of clinical disease was assessed by
# 1) skin thickness dial gauge micrometer measurements (duplicate) of the ears and the dorsal skin at the midline of the back (equal to double true measure of dorsal skin thickness)
# 2) erythema and scaling, independently scored on a scale from 0-4: 0=none, 1=slight, 2=moderate, 3=marked, 4=very marked with intermediate increments of 0.5 allowed.
# Clinical disease assessments included erythema, scaling, skin thickness and cumulative disease severity scores and the change in skin thickness of the ears and dorsal back skin over time compared to baseline measurements (Tables 19 and 20). Body weights of the mice were measured at baseline and at end of study, and there were no significant changes in weight in any treatment group during the study (data not shown).
# TRIM33 = target: T1, TRIM33 (Homo sapiens, UniProt Q9UPN9); assay: Bromodomain binding assay: TRIM33
# T1 construct: made in house; host or cells: E. coli host derived from the BL21 strain (T7 phage lysate)
# Experimental: (§1) T7 phage strains displaying bromodomains were grown in parallel in 24-well blocks in an E. coli host derived from the BL21 strain. E. coli were grown to log-phase and infected with T7 phage from a frozen stock (multiplicity of infection=0.4) and incubated with shaking at 32° C. until lysis (90-150 minutes). The lysates were centrifuged (5,000×g) and filtered (0.2 μm) to remove cell debris. […] The liganded beads were blocked with excess biotin and washed with blocking buffer (SeaBlock (Pierce), 1% BSA, 0.05 Tween 20, 1 mM DTT) to remove unbound ligand and to reduce non-specific phage binding. […] Test compounds (T62 and 46) were prepared as 1000× stocks in 100% DMSO and subsequently diluted 1:10 in monoethylene glycol (MEG) to create stocks at 100× the screening concentration (resulting stock solution is 10% DMSO/90% MEG). The compounds were then diluted directly into the assays such that the final concentration of DMSO and MEG were 0.1% and 0.9%, respectively. All reactions were performed in polystyrene 96-well plates in a final volume of 0.135 ml. […] The bromodomain concentration in the eluates was measured by qPCR. Compounds were assayed for binding activity against a panel of 40 bromodomain-containing proteins.
# BRDT = target: T2, BRDT (Homo sapiens, UniProt Q58F21); assay: Bromodomain binding assay: BRDT
# T2 construct: read out by qPCR of the phage DNA
# Experimental: as §1
# T1 sequence (Q9UPN9 957-1080 limits assumed): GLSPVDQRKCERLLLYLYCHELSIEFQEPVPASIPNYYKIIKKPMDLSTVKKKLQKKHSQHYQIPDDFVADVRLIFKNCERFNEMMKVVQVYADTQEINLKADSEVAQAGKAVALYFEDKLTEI
structure (smiles),measurement,setting,value
CCOc1cc(C(=O)N2CCCN(C)CC2)ccc1Nc1cc2c(cn1)N(C)C(=O)c1ccccc1N2C [Compound 8],"Clinical Score Erythema (0-4), AVG Score","[1]; Day 1 (baseline), 60 mpk BID",0
same,"Clinical Score Scaling (0-4), AVG Score","[1]; Day 1 (baseline), 60 mpk BID",0
same,"% Mean DORSAL BACK THICKNESS versus day 1, AVG","[1]; Day 3, 60 mpk BID",33.49%
same,"% Mean LEFT EAR THICKNESS [Control] versus day 1, AVG","[1]; Day 3, 60 mpk BID",−5.16%
same,"% Mean RIGHT EAR THICKNESS [IMQ] versus day 1, AVG","[1]; Day 3, 60 mpk BID",0.09%
same,"Clinical Score Erythema (0-4), AVG Score","[1]; Day 3, 60 mpk BID",1.25
same,"Clinical Score Scaling (0-4), AVG Score","[1]; Day 3, 60 mpk BID",0.5
same,"% Mean DORSAL BACK THICKNESS versus day 1, AVG","[1]; Day 4, 60 mpk BID",43.51%
same,"% Mean LEFT EAR THICKNESS [Control] versus day 1, AVG","[1]; Day 4, 60 mpk BID",−6.51%
same,"% Mean RIGHT EAR THICKNESS [IMQ] versus day 1, AVG","[1]; Day 4, 60 mpk BID",5.74%
same,"Clinical Score Erythema (0-4), AVG Score","[1]; Day 4, 60 mpk BID",1.4
same,"Clinical Score Scaling (0-4), AVG Score","[1]; Day 4, 60 mpk BID",0.6
same,"% Mean DORSAL BACK THICKNESS versus day 1, AVG","[1]; Day 6, 60 mpk BID",74.47** %
same,"% Mean LEFT EAR THICKNESS [Control] versus day 1, AVG","[1]; Day 6, 60 mpk BID",1.15%
same,"% Mean RIGHT EAR THICKNESS [IMQ] versus day 1, AVG","[1]; Day 6, 60 mpk BID",36.67* %
same,"Clinical Score Erythema (0-4), AVG Score","[1]; Day 6, 60 mpk BID",2.15
same,"Clinical Score Scaling (0-4), AVG Score","[1]; Day 6, 60 mpk BID",2.8
same,"% Mean DORSAL BACK THICKNESS versus day 1, AVG","[1]; Day 8, 60 mpk BID",32.42^NS %
same,"% Mean LEFT EAR THICKNESS [Control] versus day 1, AVG","[1]; Day 8, 60 mpk BID",−2.25%
same,"% Mean RIGHT EAR THICKNESS [IMQ] versus day 1, AVG","[1]; Day 8, 60 mpk BID",33.58** %
same,"Clinical Score Erythema (0-4), AVG Score","[1]; Day 8, 60 mpk BID",1.95
same,"Clinical Score Scaling (0-4), AVG Score","[1]; Day 8, 60 mpk BID",1.7
"CCOc1cc(C(=O)N2CCC(N3CCCC3)CC2)ccc1Nc1cc2c(cn1)N(C)C(=O)c1ccccc1N2C [Compound 46, 3-(2-Ethoxy-4-(4-(pyrrolidin-1-yl)piperidine-1-carbonyl)phenylamino)-5,11-dimethyl-5H-benzo[e]pyrido[3,4-b][1,4]diazepin-10(11H)-one]","Clinical Score Erythema (0-4), AVG Score","[1]; Day 1 (baseline), 60 mpk BID",0
same,"Clinical Score Scaling (0-4), AVG Score","[1]; Day 1 (baseline), 60 mpk BID",0
same,"Clinical Score Erythema (0-4), AVG Score","[1]; Day 1 (baseline), 60 mpk QD",0
same,"Clinical Score Scaling (0-4), AVG Score","[1]; Day 1 (baseline), 60 mpk QD",0
same,"% Mean DORSAL BACK THICKNESS versus day 1, AVG","[1]; Day 3, 25 mpk BID",29.55%
same,"% Mean LEFT EAR THICKNESS [Control] versus day 1, AVG","[1]; Day 3, 25 mpk BID",−7.42%
same,"% Mean RIGHT EAR THICKNESS [IMQ] versus day 1, AVG","[1]; Day 3, 25 mpk BID",6.71%
same,"% Mean DORSAL BACK THICKNESS versus day 1, AVG","[1]; Day 3, 60 mpk BID",34.79%
same,"% Mean LEFT EAR THICKNESS [Control] versus day 1, AVG","[1]; Day 3, 60 mpk BID",−8.07%
same,"% Mean RIGHT EAR THICKNESS [IMQ] versus day 1, AVG","[1]; Day 3, 60 mpk BID",3.35%
same,"Clinical Score Erythema (0-4), AVG Score","[1]; Day 3, 60 mpk BID",1.15
same,"Clinical Score Scaling (0-4), AVG Score","[1]; Day 3, 60 mpk BID",0.5
same,"% Mean DORSAL BACK THICKNESS versus day 1, AVG","[1]; Day 3, 60 mpk QD",41.12%
same,"% Mean LEFT EAR THICKNESS [Control] versus day 1, AVG","[1]; Day 3, 60 mpk QD",−8.74%
same,"% Mean RIGHT EAR THICKNESS [IMQ] versus day 1, AVG","[1]; Day 3, 60 mpk QD",3.71%
same,"Clinical Score Erythema (0-4), AVG Score","[1]; Day 3, 60 mpk QD",1.05
same,"Clinical Score Scaling (0-4), AVG Score","[1]; Day 3, 60 mpk QD",0.5
same,"% Mean DORSAL BACK THICKNESS versus day 1, AVG","[1]; Day 4, 25 mpk BID",43.62%
same,"% Mean LEFT EAR THICKNESS [Control] versus day 1, AVG","[1]; Day 4, 25 mpk BID",−5.56%
same,"% Mean RIGHT EAR THICKNESS [IMQ] versus day 1, AVG","[1]; Day 4, 25 mpk BID",12.03%
same,"% Mean DORSAL BACK THICKNESS versus day 1, AVG","[1]; Day 4, 60 mpk BID",45.39%
same,"% Mean LEFT EAR THICKNESS [Control] versus day 1, AVG","[1]; Day 4, 60 mpk BID",−3.95%
same,"% Mean RIGHT EAR THICKNESS [IMQ] versus day 1, AVG","[1]; Day 4, 60 mpk BID",11.25%
same,"Clinical Score Erythema (0-4), AVG Score","[1]; Day 4, 60 mpk BID",1.3
same,"Clinical Score Scaling (0-4), AVG Score","[1]; Day 4, 60 mpk BID",0.55
same,"% Mean DORSAL BACK THICKNESS versus day 1, AVG","[1]; Day 4, 60 mpk QD",54.57%
same,"% Mean LEFT EAR THICKNESS [Control] versus day 1, AVG","[1]; Day 4, 60 mpk QD",−7.01%
same,"% Mean RIGHT EAR THICKNESS [IMQ] versus day 1, AVG","[1]; Day 4, 60 mpk QD",9.53%
same,"Clinical Score Erythema (0-4), AVG Score","[1]; Day 4, 60 mpk QD",1.3
same,"Clinical Score Scaling (0-4), AVG Score","[1]; Day 4, 60 mpk QD",0.6
same,"% Mean DORSAL BACK THICKNESS versus day 1, AVG","[1]; Day 6, 25 mpk BID",84.46* %
same,"% Mean LEFT EAR THICKNESS [Control] versus day 1, AVG","[1]; Day 6, 25 mpk BID",−1.35%
same,"% Mean RIGHT EAR THICKNESS [IMQ] versus day 1, AVG","[1]; Day 6, 25 mpk BID",37.60* %
same,"% Mean DORSAL BACK THICKNESS versus day 1, AVG","[1]; Day 6, 60 mpk BID",72.41** %
same,"% Mean LEFT EAR THICKNESS [Control] versus day 1, AVG","[1]; Day 6, 60 mpk BID",1.37%
same,"% Mean RIGHT EAR THICKNESS [IMQ] versus day 1, AVG","[1]; Day 6, 60 mpk BID",33.34** %
same,"Clinical Score Erythema (0-4), AVG Score","[1]; Day 6, 60 mpk BID",1.65
same,"Clinical Score Scaling (0-4), AVG Score","[1]; Day 6, 60 mpk BID",2.55
same,"% Mean DORSAL BACK THICKNESS versus day 1, AVG","[1]; Day 6, 60 mpk QD",90.77^NS %
same,"% Mean LEFT EAR THICKNESS [Control] versus day 1, AVG","[1]; Day 6, 60 mpk QD",8.65%
same,"% Mean RIGHT EAR THICKNESS [IMQ] versus day 1, AVG","[1]; Day 6, 60 mpk QD",38.11* %
same,"Clinical Score Erythema (0-4), AVG Score","[1]; Day 6, 60 mpk QD",2.25
same,"Clinical Score Scaling (0-4), AVG Score","[1]; Day 6, 60 mpk QD",3.05
same,"% Mean DORSAL BACK THICKNESS versus day 1, AVG","[1]; Day 8, 25 mpk BID",46.07^NS %
same,"% Mean LEFT EAR THICKNESS [Control] versus day 1, AVG","[1]; Day 8, 25 mpk BID",−3.26%
same,"% Mean RIGHT EAR THICKNESS [IMQ] versus day 1, AVG","[1]; Day 8, 25 mpk BID",43.36** %
same,"% Mean DORSAL BACK THICKNESS versus day 1, AVG","[1]; Day 8, 60 mpk BID",41.36^NS %
same,"% Mean LEFT EAR THICKNESS [Control] versus day 1, AVG","[1]; Day 8, 60 mpk BID",−1.92%
same,"% Mean RIGHT EAR THICKNESS [IMQ] versus day 1, AVG","[1]; Day 8, 60 mpk BID",40.66** %
same,"Clinical Score Erythema (0-4), AVG Score","[1]; Day 8, 60 mpk BID",1.3
same,"Clinical Score Scaling (0-4), AVG Score","[1]; Day 8, 60 mpk BID",1.45
same,"% Mean DORSAL BACK THICKNESS versus day 1, AVG","[1]; Day 8, 60 mpk QD",45.99^NS %
same,"% Mean LEFT EAR THICKNESS [Control] versus day 1, AVG","[1]; Day 8, 60 mpk QD",0.14%
same,"% Mean RIGHT EAR THICKNESS [IMQ] versus day 1, AVG","[1]; Day 8, 60 mpk QD",48.04** %
same,"Clinical Score Erythema (0-4), AVG Score","[1]; Day 8, 60 mpk QD",1.1
same,"Clinical Score Scaling (0-4), AVG Score","[1]; Day 8, 60 mpk QD",1.7
same,Kd,TRIM33,> 20000 nM
same,Kd,BRDT,169 nM
